Values of other authors in US7135615B2, “Chromosome doubling method” (The Curators of the University of Missouri, priority 2001, dated 2006).

Test system: parthenogenetically induced haploid maize (Zea mays L.) seedlings
Details: cited from earlier work

## COc1cc2c(c(OC)c1OC)-c1ccc(OC)c(=O)cc1[C@@H](NC(C)=O)CC2 [colchicine]
Colchicine treatments of haploid maize seedlings, reported
  haploid recovery rates: 26–41%
Colchicine treatments, affected by growing conditions
  recovery rates could drop as low as: 0.8–3.1%
Previously used colchicine treatments
  estimated selfing rate: 5–15%
